test system: siRNA; test: Gel retardation assay of siRNA encapsulation; format: physicochemical; details: 2% agarose, 100 pmol siRNA mixed with peptide 30 min at room temperature, ratios 1:5 to 1:50
Description: Peptide-woven siRNA nanocomplexes (PwSN) were prepared by mixing siRNA in diethylpyrocarbonate (DEPC)-treated water (100 pmoles) with peptide carrier with a molar ratio of 1:5 to 1:50 (siRNA: peptide) for 30 min at room temperature. The samples were subjected on 2% agarose gels electrophoresis to examine siRNA encapsulation. To test the stability of the siRNA nanocomplex against RNase A, the nanocomplex containing 100 pmol of siRNA mixed with 20-fold molar excess of peptides, then was incubated in the presence or absence of RNase A (0.2 μg) for up to 6 h at 37°C. After incubation, the RNase A activity was inhibited by addition of 2% sodium dodecyl sulfate (SDS) and subjected to agarose gel electrophoresis.

| Substance | siRNA:peptide molar ratios at which siRNA is encapsulated |
| --- | --- |
| CRKRLDRNC-GG-RRRRRRRRR [I4R-9r, interleukin-4 receptor-targeting peptide (I4R) connected by GG to nine D-arginine peptide] | between 1:20 and 1:50 |

test system: siRNA; test: SPR analysis of peptide binding to immobilized siRNA; details: peptide with sHGP-9r (19:1 molar ratios), 10, 5, 2.5 and 1.25 μM, biotinylated siRNA on streptavidin chip, 25°C
Description: The dynamics of PwSN formation were studied by SPR analysis (SR7500 DC, Reichert Inc, Depew, NY). 5′-Biotinylated siRNAs were diluted to 1 μM in HBS buffer (10 mM HEPES, pH 7.4, 150 mM NaCl, 3.4 mM EDTA, 0.005% Tween20), heated at 85°C for 10 min, cooled to room temperature, diluted to 20 fmol/μl in running buffer (10 mM HEPES, pH 7.4, 150 mM NaCl, 62.5 μg/ml bovine serum albumin, 125 μg/ml tRNA, 1 mM dithiothreitol, 0.05% Tween20), and injected at 10 μl/min. 50–100 response units of siRNA were coated per flow channel on streptavidin-coated sensor chip (NeutrAvidin Surface chip; Reichert Analytical Instrument, Depew, NY). 2-min injections of four different peptide concentrations (10, 5, 2.5, and 1.25 μ M) were injected over the sensor chip surface at 25°C with a flow rate of 25 μl/min. The surface was regenerated by removing bound peptides with a 180-s 2 M NaCl injection and 20-s 0.1% SDS followed by a binding buffer injection to rinse the needle. Sensorgrams were fit to kinetic titration model using Clamp program. To monitor dissociation between peptide and siRNA upon heparan sulfate competition, The 2.5 μM of peptides were injected to reach saturated binding and different concentrations of heparan sulfate were injected.

| Substance | binding affinity for siRNA (in words) |
| --- | --- |
| CRKRLDRNCggRRARRRARR [I4R-9r(A2), I4R-9r variant with two alanine substitutions] | lowest affinity |
| CRKRLDRNCggRRARRRRRR [I4R-9r(A1*), I4R-9r variant with one arginine of 9r replaced by alanine, other position] | moderate affinity |
| CRKRLDRNCggRRRRARRRR [I4R-9r(A1), I4R-9r variant with one arginine of 9r replaced by alanine] | moderate affinity |

Next, values leading:

| binding affinity for siRNA (in words) | Substance |
| --- | --- |
| strongest binding affinity | CRKRLDRNC-GG-RRRRRRRRR [I4R-9r, interleukin-4 receptor-targeting peptide (I4R) connected by GG to nine D-arginine peptide] |
| lowest affinity | CRKRLDRNCggRARRARRAR [I4R-9r(A3), I4R-9r variant with three alanine substitutions] |
